According to ChEMBL document CHEMBL4265964, “Discover the leading compound of 4β-S-(5-fluorobenzoxazole)-4-deoxy-4'-demethylepipodophyllotoxin with millimolar-potency toxicity by modifying the molecule structure of 4'-demethylepipodophyllotoxin” (Eur J Med Chem, 2018):
Active and inactive are the calls of the source. No cut-off for these calls is given here.

Experiments:
HMEC = assay: Cytotoxicity against HMEC after 48 hrs by MTT assay; assay type: cell-based; conditions: Homo sapiens
MRC5 = assay: Cytotoxicity against human MRC5 cells after 48 hrs by MTT assay; assay type: cell-based; conditions: MRC5, 48 h
Homo sapiens [1] = species on record: Homo sapiens; assay: Inhibition of human topoisomerase-2 assessed as reduction in relaxation of kinetoplast DNA at 100 uM after 30 mins by ethidium bromide staining based agarose gel electrophoresis method
Homo sapiens [2] = species on record: Homo sapiens; assay: Inhibition of human topoisomerase-2 assessed as reduction in relaxation of kinetoplast DNA at 200 uM after 30 mins by ethidium bromide staining based agarose gel electrophoresis method
[3] = Cytotoxicity against human H8 cells after 48 hrs by MTT assay; assay type: cell-based
Homo sapiens [4] = species on record: Homo sapiens; assay: Inhibition of human topoisomerase-2 assessed as reduction in relaxation of kinetoplast DNA at 50 uM after 30 mins by ethidium bromide staining based agarose gel electrophoresis method
A549 = assay: Cytotoxicity against human A549 cells after 48 hrs by MTT assay; assay type: functional, cell-based; conditions: A549, 48 h
L02 [5] = assay: Cytotoxicity against human HL7702 cells after 48 hrs by MTT assay; assay type: cell-based; conditions: L02, 48 h
MCF7 = assay: Cytotoxicity against human MCF7 cells after 48 hrs by MTT assay; assay type: functional, cell-based; conditions: MCF7, 48 h
HepG2 [6] = assay: Cytotoxicity against human HepG2 cells after 48 hrs by MTT assay; assay type: functional, cell-based; conditions: HepG2, 48 h
HeLa = assay: Cytotoxicity against human HeLa cells after 48 hrs by MTT assay; assay type: functional, cell-based
L02 [7] = assay: Upregulation of HMGB1 expression in human HL7702 cells at 50 uM after 12 hrs by proteomic analysis; assay type: functional, cell-based
L02 [8] = assay: Upregulation of COX5A expression in human HL7702 cells at 50 uM after 12 hrs by proteomic analysis relative to control; assay type: functional, cell-based
HepG2 [9] = assay: Cell cycle arrest in human HepG2 cells assessed as accumulation at G2/M phase at 5 to 10 uM after 42 hrs by propidium iodide staining based flow cytometry; assay type: functional
HepG2 [10] = assay: Induction of apoptosis in human HepG2 cells assessed as live cells at 10 uM after 42 hrs by Annexin V-FITC/propidium iodide staining based flow cytometry (reference value: 98.2%); assay type: functional
L02 [11] = assay: Induction of apoptosis in human HL7702 cells assessed as early apoptotic cells at 100 uM after 42 hrs by Annexin V-FITC/propidium iodide staining based flow cytometry (reference value: 0.3%); assay type: cell-based; conditions: l02, 42 h
HepG2 [12] = assay: Induction of apoptosis in human HepG2 cells assessed as early apoptotic cells at 10 uM after 42 hrs by Annexin V-FITC/propidium iodide staining based flow cytometry (reference value: 0.5%); assay type: functional
[13] = Induction of apoptosis in human HL7702 cells assessed as live cells at 100 uM after 42 hrs by Annexin V-FITC/propidium iodide staining based flow cytometry (reference value: 98.5%); assay type: cell-based; conditions: HL7702 (L02) cells, read-out: Activity
L02 [14] = assay: Upregulation of SRSF3 expression in human HL7702 cells at 50 uM after 12 hrs by proteomic analysis relative to control; assay type: functional, cell-based
L02 [15] = assay: Upregulation of Akt expression in human HL7702 cells at 50 uM after 12 hrs by proteomic analysis relative to control; assay type: functional, cell-based
L02 [16] = assay: Induction of apoptosis in human HL7702 cells assessed as necrotic cells at 100 uM after 42 hrs by Annexin V-FITC/propidium iodide staining based flow cytometry (reference value: 0.2%); assay type: cell-based; conditions: l02, 42 h
HepG2 [17] = assay: Cell cycle arrest in human HepG2 cells assessed as accumulation at G2/M phase at 1 uM after 42 hrs by propidium iodide staining based flow cytometry relative to control; assay type: functional
L02 [18] = assay: Cell cycle arrest in human HL7702 cells assessed as accumulation at G2/M phase at 5 to 10 uM after 42 hrs by propidium iodide staining based flow cytometry relative to control; conditions: l02, 42 h
L02 [19] = assay: Upregulation of PARK7 expression in human HL7702 cells at 50 uM after 12 hrs by proteomic analysis; assay type: functional, cell-based
HepG2 [20] = assay: Induction of apoptosis in human HepG2 cells assessed as late apoptotic cells at 10 uM after 42 hrs by Annexin V-FITC/propidium iodide staining based flow cytometry (reference value: 0.9%); assay type: functional
HepG2 [21] = assay: Induction of apoptosis in human HepG2 cells assessed as necrotic cells at 10 uM after 42 hrs by Annexin V-FITC/propidium iodide staining based flow cytometry (reference value: 0.3%); assay type: functional
L02 [22] = assay: Induction of apoptosis in human HL7702 cells assessed as late apoptotic cells at 100 uM after 42 hrs by Annexin V-FITC/propidium iodide staining based flow cytometry (reference value: 1%); assay type: cell-based; conditions: l02, 42 h
L02 [23] = assay: Induction of DNA damage in human HL7702 cells assessed as gammaH2AX accumulation at 50 uM after 12 hrs by DAPI staining based immuno-fluorescence assay; assay type: cell-based; conditions: l02, 12 h

SMILES | IC50 (HMEC) [µM] | IC50 (MRC5) [µM] | IC50 [3] [µM] | IC50 (A549) [µM] | IC50 (L02 [5]) [µM] | IC50 (MCF7) [µM] | IC50 (HepG2 [6]) [µM] | IC50 (HeLa) [µM] | also measured
COc1cc([C@@H]2c3cc4c(cc3[C@@H](c3nc5cnc(F)cc5[nH]3)[C@H]3COC(=O)[C@H]23)OCO4)cc(OC)c1O | > 100 | 41.3 | 34 | 24.5 | 29.8 | 16.4 | 22.5 | 11.9 | inhibition (Homo sapiens [1]): inactive; inhibition (Homo sapiens [2]): Active; inhibition (Homo sapiens [4]): inactive
COc1cc([C@@H]2c3cc4c(cc3[C@@H](C3CC(S)NN3c3ccccc3F)[C@H]3COC(=O)[C@H]23)OCO4)cc(OC)c1O (some centres not stated) | 58.2 | 89.2 | 64.2 | 2.8 | 73 | 1.5 | 4.5 | 3.8 | –
COc1cc([C@@H]2c3cc4c(cc3[C@@H](c3nc5cnccc5[nH]3)[C@H]3COC(=O)[C@H]23)OCO4)cc(OC)c1O | > 100 | 63.4 | > 100 | > 100 | 59.8 | > 100 | > 100 | > 100 | –
COc1cc([C@@H]2c3cc4c(cc3[C@@H](C3CC(c5ccncc5F)=CN3)[C@H]3COC(=O)[C@H]23)OCO4)cc(OC)c1O (some centres not stated) | 31.5 | 28.1 | 19.2 | 1.4 | 19.8 | 2.5 | 2.8 | 1.9 | –
COc1cc([C@@H]2c3cc4c(cc3[C@@H](c3nc5c(F)c(F)c(F)c(F)c5o3)[C@H]3COC(=O)[C@H]23)OCO4)cc(OC)c1O | 75.5 | 65.4 | 44.6 | 1.7 | 75.1 | 3.5 | 6.8 | 4.3 | –
COc1cc([C@@H]2c3cc4c(cc3[C@@H](c3nc5cc(C(F)(F)F)ccc5s3)[C@H]3COC(=O)[C@H]23)OCO4)cc(OC)c1O | 42.3 | 73.3 | 81 | 6.5 | 79.5 | 34.5 | 19.5 | 21.1 | –
COc1cc([C@@H]2c3cc4c(cc3[C@@H](c3nc5cc(C)ccc5o3)[C@H]3COC(=O)[C@H]23)OCO4)cc(OC)c1O | 12.6 | 39 | 19.5 | 8 | 31.5 | 14.4 | 15.4 | 15.4 | –
COc1cc([C@@H]2c3cc4c(cc3[C@@H](O[C@@H]3O[C@@H]5CO[C@@H](C)O[C@H]5[C@H](O)[C@H]3O)[C@H]3COC(=O)[C@H]23)OCO4)cc(OC)c1O [ETOPOSIDE] | 21.5 | 33.5 | 75.4 | 22.5 | 24.6 | 53.8 | 20 | 21.4 | Activity (L02 [7]): inactive; Activity (L02 [8]): inactive; inhibition (Homo sapiens [1]): Active; inhibition (Homo sapiens [2]): Active; Activity (HepG2 [9]): Active; Activity (HepG2 [10]): 76.6%; Activity (L02 [11]): 37%; Activity (HepG2 [12]): 7%; inhibition (Homo sapiens [4]): inactive; viability at 42 h, 100 µM [13]: 28%; Activity (L02 [14]): inactive; Activity (L02 [15]): inactive; Activity (L02 [16]): 2.2%; Activity (HepG2 [17]): 33%; Activity (L02 [18]): 64%; Activity (L02 [19]): inactive; Activity (HepG2 [20]): 11%; Activity (HepG2 [21]): 5.4%; Activity (L02 [22]): 32.8%; Activity (L02 [23]): Toxic
COc1cc([C@@H]2c3cc4c(cc3[C@@H](c3nc5cc(-c6ccccc6)ccc5s3)[C@H]3COC(=O)[C@H]23)OCO4)cc(OC)c1O | 54.1 | 35.6 | 47.6 | 5.7 | 18.6 | > 100 | 15.3 | 22.5 | –
COc1cc([C@@H]2c3cc4c(cc3[C@@H](c3nc5c(F)c(F)c(F)c(F)c5s3)[C@H]3COC(=O)[C@H]23)OCO4)cc(OC)c1O | 18.2 | 41.4 | 24.7 | 4.2 | 35.6 | 5.5 | 14.5 | 2.3 | –
COc1cc([C@@H]2c3cc4c(cc3[C@@H](C3CC(c5ccncc5)=CN3)[C@H]3COC(=O)[C@H]23)OCO4)cc(OC)c1O (some centres not stated) | 38.1 | 19 | 23.6 | 2 | 22.8 | 4.3 | 10 | 5.7 | –
COc1cc([C@@H]2c3cc4c(cc3[C@@H](c3nc5cc(OC(F)F)ccc5[nH]3)[C@H]3COC(=O)[C@H]23)OCO4)cc(OC)c1O | 51.4 | 60.2 | 55.4 | 1.3 | 15.6 | 2.4 | 1.6 | 2.1 | –
COc1cc([C@@H]2c3cc4c(cc3[C@@H](c3nc5ccccc5s3)[C@H]3COC(=O)[C@H]23)OCO4)cc(OC)c1O | 28.6 | 136 | 19.4 | 2.6 | 22.7 | 11.5 | 6.7 | 5.1 | –
COc1cc([C@@H]2c3cc4c(cc3[C@@H](c3nc5ccccc5o3)[C@H]3COC(=O)[C@H]23)OCO4)cc(OC)c1O | 15.6 | 32.3 | 20.4 | 25.6 | 17.7 | 21.4 | 19.4 | 16.4 | –
COc1cc([C@@H]2c3cc4c(cc3[C@@H](c3nc5cc(C(F)(F)F)ccc5o3)[C@H]3COC(=O)[C@H]23)OCO4)cc(OC)c1O | 72.8 | 73.3 | 81 | 6.5 | 79.5 | 34.5 | 19.5 | 21.1 | –
COc1cc([C@@H]2c3cc4c(cc3[C@@H](c3nc5cc(-c6ccccc6)ccc5o3)[C@H]3COC(=O)[C@H]23)OCO4)cc(OC)c1O | 83.4 | 76.3 | > 100 | > 100 | 21.7 | > 100 | > 100 | > 100 | –
COc1cc([C@@H]2c3cc4c(cc3[C@@H](O)[C@H]3COC(=O)[C@H]23)OCO4)cc(OC)c1O [4'-DEMETHYLEPIPODOPHYLLOTOXIN] | 19.6 | 21.3 | 25.1 | 19 | 19.4 | 30.1 | 26.1 | 27.8 | –
COc1cc([C@@H]2c3cc4c(cc3[C@@H](c3nc5cc(C)ccc5s3)[C@H]3COC(=O)[C@H]23)OCO4)cc(OC)c1O | 15.6 | 47 | 27.5 | 3 | 24.2 | 5.4 | 8.2 | 5.1 | –
